Data published in patent US20070014788A1, “Laminin-5 modulators and uses thereof” (Novo Nordisk A/S, priority 2004, published 2007).

System: SW480 cells
Assay: Cell death (LDH release) of transfected SW480 cells, alone and with anti-cancer compounds
Assay type: cell-based
Settings: low dose of compound, 24 hours
Protocol: SW480 cells obtained from ATCC were grown in DME:F12 supplemented with 10% foetal calf serum and routinely checked for being mycoplasma free. For transfection, the cells were seeded as 3×10^5 cells/2 ml in 6 well plates. Transfection was carried out after cells have attached at least overnight using Lipofectamin 2000 (Life Technologies). Liposomes were formed in medium without serum by mixing 10 μl lipofectamine 2000 and 3 μg plasmid DNA or 15 μl 20 pmol/μl oligonucleotide in a total volume of 250 μl. After liposome formation, the mixture was added to cells and incubated 5 hours in cell incubator before medium was changed to complete medium with serum. After 24 hours, cells were trypsinised and moved to 96 well plates to analyse for death induction.
The cells were allowed to plate for 24 hours before dosing with the indicated compounds, all in triplicate. The compounds were solubilised in DMSO and added to cells in medium with no more than 0.1% v/v DMSO. Triplicate cell cultures for basal cell death (untreated) and maximal response (complete lysis) were included as well as triplicate media samples for background determination. Cells were incubated for additional 24 hours. The maximal response (100% cell death) was induced by adding 1% v/v Triton X100 to triplicate cell cultures 5 min before medium was collected for detection of lactate dehydrogenase (LDH) activity. Medium from all samples were used in the detection of LDH using a kit from Takara Bio Inc.

## CN[C@@H]1C[C@H]2O[C@@](C)([C@@H]1OC)n1c3ccccc3c3c4c(c5c6ccccc6n2c5c31)C(=O)NC4 [staurosporine]
  effect of added compound on the increased cell death by siRNA against gamma2: did not attenuate

## C/C=C(/C)C(=O)O[C@H]1C(C)=C2[C@H]([C@@H]1OC(=O)CCCCCCC)[C@@](C)(OC(C)=O)C[C@H](OC(=O)CCC)[C@@]1(O)[C@H]2OC(=O)[C@@]1(C)O [thapsigargin]
  effect of added compound on the increased cell death by siRNA against gamma2: did not attenuate

## tunicamycin
  effect of added compound on the increased cell death by siRNA against gamma2: did not attenuate

B1: TRAIL: TNF-related apoptosis-inducing ligand (protein, UniProt P50591 1-281, looked up)
Tumor necrosis factor ligand …: MAMMEVQGGPSLGQTCVLIVIFTVLLQSLCVAVTYVYFTNELKQMQDKYSKSGIACFLKEDDSYWDPNDEESMNSPCWQVKWQLRQLVRKMILRTSEETISTVQEKQQNISPLVRERGPQRVAAHITGTRGRSNTLSSPNSKNEKALGRKINSWESSRSGHSFLSNLHLRNGELVIHEKGFYYIYSQTYFRFQEEIKENTKNDKQMVQYIYKYTSYPDPILLMKSARNSCWSKDAEYGLYSIYQGGIFELKENDRIFVSVTNEHLIDMDHEASFFGAFLVG
  effect of added compound on the increased cell death by siRNA against gamma2: did not attenuate
